Measurements taken from patent publication US4232160A, “Isoquinoline propionamides exhibiting analgesic properties” (Miles Laboratories, Inc., priority 1978, dated 1980).
Structures can show the parent of a compound that is named as a salt.

tested on: male CD-1 mice; experiment: acetic acid induced writhing test (analgesic activity, subcutaneous); assay type: in vivo; conditions: Mus musculus, sc, 0.5% acetic acid i.p. 15 min post drug, writhes counted in 20 min interval beginning 5 min after acetic acid, read-out: ED50 (dose required to reduce the number of writhes by 50%)
Procedure: The analgesic activity of the isoquinoline propionanilides prepared as described in Examples I-XIII was determined by the acetic acid induced writhing test described by Whittle et al., Brit. J. Pharmacol, 22 296 (1964). In this test at least three groups of five male CD-1 mice each were given subcutaneous doses of the test drug dissolved in either distilled water or distilled water acidified with HCl depending on solubility of the compound. In all cases 0.4 ml. of 0.5% v/v acetic acid in distilled water was administered intraperitoneal 15 minutes post drug. The number of writhes in a 20 minute interval beginning 5 minutes after the acetic acid injection were determined and compared with the number of writhes in control groups which had received only acetic acid. In two cases the ITME writhing test protocol was used which is the same as that outlined above except that the number of writhes are determined for 10 minutes after the administration of acetic acid.
Percent inhibition of writhing was calculated as: [formula]
The ED50 does, ie. the dose required to reduce the number of writhes by 50%, was determined graphically from a plot of % inhibition as a probit versus log dose. Confidence limits of 95% were calculated on the basis of those results falling in the range 16-84% inhibition. See Litchfield, J. T. and Wilcoxon, F., J Pharmacol. Exp. Ther., 96 99-113, (1949).

Row | Structure (SMILES) | ED50 [mg/kg]
1 | CCC(=O)N(Cc1ccccc1)CC1c2ccccc2CCN1C (stereo not shown) [TR-3389, N-[(1,2,3,4-Tetrahydro-2-methyl-1-isoquinolyl)methyl]-N-benzylpropionamideoxalate] | 23
2 | CCC(=O)N(CC1c2ccccc2CCN1CC1CC1)c1ccccc1.Cl (stereo not shown) [TR-3207, N-[(1,2,3,4-Tetrahydro-2-cyclopropylmethyl-1-isoquinolyl)methyl]propionanilide hydrochloride] | 7.45
3 | CCC(=O)N(CC1c2ccccc2CCN1Cc1ccccc1)c1ccccc1.Cl (stereo not shown) [TR-3359, N-[(1,2,3,4-Tetrahydro-2-benzyl-1-isoquinolyl)methyl]propionanilide hydrochloride] | 15
4 | CCC(=O)N(CC1c2ccccc2CCN1C)c1ccc(Cl)cc1.Cl (stereo not shown) [TR-3354, N-[(1,2,3,4-Tetrahydro-2-methyl-1-isoquinolyl)methyl]N-(4-chlorophenyl)propionamide hydrochloride] | 0.5
5 | CCC(=O)N(CC1c2ccccc2CCN1C)c1ccccn1 (stereo not shown) [TR-3461, N-[(2-Methyl-1,2,3,4-tetrahydro-1-isoquinolyl)methyl]-N-(2-pyridyl)priopionamide hydrochloride] | 10.7
6 | CCC(=O)N(Cc1ccccc1)CC1c2ccccc2CCN1Cc1ccccc1 (stereo not shown) [TR-3388, N-[(1,2,3,4-Tetrahydro-2-benzyl-1-isoquinolyl)methyl]-N-benzylpropionamideoxalate] | 33
7 | CCCCCCN1CCc2ccccc2C1CN(C(=O)CC)c1ccccc1.O.O=C(O)C(=O)O (stereo not shown) [TR-3309, N-[(1,2,3,4-Tetrahydro-2-n-hexyl-1-isoquinolyl)methyl]propionanilide oxalate hydrate] | 2.08
8 | CCC(=O)N(CC1c2ccccc2CCN1C)c1ccccc1.Cl (stereo not shown) [TR-3284, N-[(1,2,3,4-Tetrahydro-2-methyl-1-isoquinolyl)methyl]propionanilide hydrochloride] | 7.1
9 | CCC(=O)N(CC1c2cc(OC)c(OC)cc2CCN1C)c1ccccc1 (stereo not shown) [TR-3426, N-[(6,7-Dimethoxy-2-methyl-1,2,3,4-tetrahydro-1-isoquinolyl)methyl]propionanilide] | 4.55
10 | CCC(=O)N(CC1c2ccccc2CCN1C)c1ccc(C)cc1.Cl (stereo not shown) [TR-3355, N-[(1,2,3,4-Tetrahydro-2-methyl-1-isoquinolyl)methyl]-N-(4-methylphenyl)propionamide hydrochloride] | 0.53
11 | CCCCCN1CCc2ccccc2C1CN(C(=O)CC)c1ccccc1.Cl (stereo not shown) [TR-3316, N-[(1,2,3,4-Tetrahydro-2-n-pentyl-1-isoquinolyl)methyl]propionanilide hydrochloride] | 1.76

same assay, conditions: Mus musculus, sc, 10 min, *According to IMTE writhing test protocol: writhes determined for 10 minutes after acetic acid, read-out: ED50 (dose required to reduce the number of writhes by 50%)

Row | Structure (SMILES) | ED50 [mg/kg]
12 | CCC(=O)N(CC1c2ccccc2CCN1CCC(C)C)c1ccccc1.Cl (stereo not shown) [TR-3317, N-[(1,2,3,4-Tetrahydro-2-i-pentyl-1-isoquinolyl)methyl]propionanilide hydrochloride] | 16.5
13 | CCC(=O)N(CC1c2ccccc2CCN1CCc1ccccc1)c1ccccc1.Cl (stereo not shown) [TR-3280, N-[(1,2,3,4-Tetrahydro-2-phenethyl-1-isoquinolyl)methyl]propionanilide hydrochloride] | 10
